These results are taken from US9073855B2, “BCL-2 selective apoptosis-inducing agents for the treatment of cancer and immune diseases” (AbbVie Inc., priority 2008, dated 2015).

Assay [1] has as its target GST-Bcl-2 (Homo sapiens, UniProt P10415). Put plainly: TR-FRET binding assay, GST-Bcl-2 with F-Bak peptide probe. The following applies: for Ki: TR-FRET Binding Affinity; for Binding selectivity ratio (Bcl-XL Ki/Bcl-2 Ki): ratio of TR-FRET Ki values, Bcl-XL over Bcl-2. In outline: (§1)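 Compounds were serially diluted in DMSO from a 50 μM starting solution (2× the starting concentration; 10% DMSO). Plates were incubated for 3 h at room temperature, and TR-FRET was read with 340/35 nm excitation and emission at 520/525 nm (F-Bak) and 495/510 nm (Tb antibody). Ki values were calculated using Wang's competitive-binding equation.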

The target in assay [2] is GST-Bcl-XL (Homo sapiens, UniProt Q07817). Put plainly: TR-FRET binding assay, GST-Bcl-XL with F-Bak peptide probe. To be noted: TR-FRET Binding Affinity. The method, boiled down: as §1
GST-Bcl-XL, sequence (Q07817 whole entry): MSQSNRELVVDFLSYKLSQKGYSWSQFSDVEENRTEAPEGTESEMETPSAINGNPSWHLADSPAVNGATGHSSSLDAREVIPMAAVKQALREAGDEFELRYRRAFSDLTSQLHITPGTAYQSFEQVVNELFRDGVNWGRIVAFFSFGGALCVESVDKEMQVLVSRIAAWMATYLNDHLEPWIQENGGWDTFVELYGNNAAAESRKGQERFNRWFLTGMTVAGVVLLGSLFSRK
Where [3] appears, read: GST-Bcl-XL, F-Bak peptide probe.

A value given as a limit tells only on which side of the number the result lay.

GST-Bcl-2, sequence (P10415 whole entry): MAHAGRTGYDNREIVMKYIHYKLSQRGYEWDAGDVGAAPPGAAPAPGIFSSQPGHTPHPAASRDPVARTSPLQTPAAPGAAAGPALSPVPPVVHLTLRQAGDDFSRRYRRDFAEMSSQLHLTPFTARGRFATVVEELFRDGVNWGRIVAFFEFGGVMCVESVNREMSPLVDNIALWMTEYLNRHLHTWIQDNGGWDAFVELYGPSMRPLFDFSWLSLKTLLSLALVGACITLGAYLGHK

As to `CN(C)CC(=O)N1CCO[C@@H](COc2ncc(S(=O)(=O)NC(=O)c3ccc(N4CCN(CC5=C(c6ccc(Cl)cc6)CC(C)(C)CC5)CC4)cc3Oc3cccc4[nH]cnc34)cc2Cl)C1` [Example 424, 2-(1H-benzimidazol-4-yloxy)-N-[(5-chloro-6-{[(2R)-4-(N,N-dimethylglycyl)morpholin-2-yl]methoxy}pyridin-3-yl)sulfonyl]-4-(4-{[2-(4-chlorophenyl)-4,4-dimethylcyclohex-1-en-1-yl]methyl}piperazin-1-yl)benzamide], the Ki was < 0.01 nM in assay [1] (GST-Bcl-2, F-Bak peptide probe) and 7.82 nM in assay [2] (setting [3]). In addition, in assay [1], the “Binding selectivity ratio (Bcl-XL Ki/Bcl-2 Ki)” value (“Binding selectivity ratio” below) was 782.5.

For the molecule `CN(C)CC(=O)N1CCO[C@H](COc2ncc(S(=O)(=O)NC(=O)c3ccc(N4CCN(CC5=C(c6ccc(Cl)cc6)CC(C)(C)CC5)CC4)cc3Oc3cccc4[nH]ncc34)cc2Cl)C1` [Example 425, N-[(5-chloro-6-{[(2S)-4-(N,N-dimethylglycyl)morpholin-2-yl]methoxy}pyridin-3-yl)sulfonyl]-4-(4-{[2-(4-chlorophenyl)-4,4-dimethylcyclohex-1-en-1-yl]methyl}piperazin-1-yl)-2-(1H-indazol-4-yloxy)benzamide], the Ki in assay [1] (GST-Bcl-2, F-Bak peptide probe) stood at 0.003 nM; in assay [2] (setting [3]) it was 3.99 nM. Moreover, the “Binding selectivity ratio” value in assay [1] was 1282.2.

As for `CN(C)CC(=O)N1CCO[C@@H](COc2ncc(S(=O)(=O)NC(=O)c3ccc(N4CCN(CC5=C(c6ccc(Cl)cc6)CC(C)(C)CC5)CC4)cc3Oc3cccc4[nH]ncc34)cc2Cl)C1` [Example 426, N-[(5-chloro-6-{[(2R)-4-(N,N-dimethylglycyl)morpholin-2-yl]methoxy}pyridin-3-yl)sulfonyl]-4-(4-{[2-(4-chlorophenyl)-4,4-dimethylcyclohex-1-en-1-yl]methyl}piperazin-1-yl)-2-(1H-indazol-4-yloxy)benzamide], the Ki was 0.007 nM in assay [1] (GST-Bcl-2, F-Bak peptide probe) and 4.31 nM in assay [2] (setting [3]). Also, in assay [1], the “Binding selectivity ratio” value was found to be 604.2.

Regarding `CC1(C)CCC(CN2CCN(c3ccc(C(=O)NS(=O)(=O)c4cnc(OCC5CCOCC5)c(Cl)c4)c(Oc4cccc5[nH]ncc45)c3)CC2)=C(c2ccc(Cl)cc2)C1` [Example 427, 4-(4-{[2-(4-chlorophenyl)-4,4-dimethylcyclohex-1-en-1-yl]methyl}piperazin-1-yl)-N-{[5-chloro-6-(tetrahydro-2H-pyran-4-ylmethoxy)pyridin-3-yl]sulfonyl}-2-(1H-indazol-4-yloxy)benzamide], the Ki in assay [1] (GST-Bcl-2, F-Bak peptide probe) came out at 0.002 nM; in assay [2] (setting [3]), 85.6 nM. In addition, in assay [1], the “Binding selectivity ratio” value turned out to be 34408.6.

In the case of `CC1(C)CCC(CN2CCN(c3ccc(C(=O)NS(=O)(=O)c4ccc(N[C@@H]5CCN(CC#N)C5)c([N+](=O)[O-])c4)c(Oc4cccc5[nH]cnc45)c3)CC2)=C(c2ccc(Cl)cc2)C1` [Example 428, 2-(1H-benzimidazol-4-yloxy)-4-(4-{[2-(4-chlorophenyl)-4,4-dimethylcyclohex-1-en-1-yl]methyl}piperazin-1-yl)-N-[(4-{[(3R)-1-(cyanomethyl)pyrrolidin-3-yl]amino}-3-nitrophenyl)sulfonyl]benzamide], the Ki in assay [1] (GST-Bcl-2, F-Bak peptide probe) stood at 0.003 nM; in assay [2] (setting [3]), 15.6 nM. For the same molecule, the “Binding selectivity ratio” value in assay [1] is recorded as 5832.2.

Regarding `COCCOCCN1CC[C@@H](Nc2ccc(S(=O)(=O)NC(=O)c3ccc(N4CCN(CC5=C(c6ccc(Cl)cc6)CC(C)(C)CC5)CC4)cc3Oc3cccc4[nH]cnc34)cc2[N+](=O)[O-])C1` [Example 429, 2-(1H-benzimidazol-4-yloxy)-4-(4-{[2-(4-chlorophenyl)-4,4-dimethylcyclohex-1-en-1-yl]methyl}piperazin-1-yl)-N-{[4-({(3R)-1-[2-(2-methoxyethoxy)ethyl]pyrrolidin-3-yl}amino)-3-nitrophenyl]sulfonyl}benzamide], the Ki in assay [1] (GST-Bcl-2, F-Bak peptide probe) is < 0.01 nM; in assay [2] (setting [3]), 1.41 nM. Also, the “Binding selectivity ratio” value in assay [1] was 140.7.

Turning to `CN(C)CC(=O)N1CC[C@@H](Nc2ccc(S(=O)(=O)NC(=O)c3ccc(N4CCN(CC5=C(c6ccc(Cl)cc6)CC(C)(C)CC5)CC4)cc3Oc3cccc4[nH]cnc34)cc2[N+](=O)[O-])C1` [Example 430, 2-(1H-benzimidazol-4-yloxy)-4-(4-{[2-(4-chlorophenyl)-4,4-dimethylcyclohex-1-en-1-yl]methyl}piperazin-1-yl)-N-[(4-{[(3R)-1-(N,N-dimethylglycyl)pyrrolidin-3-yl]amino}-3-nitrophenyl)sulfonyl]benzamide], the Ki in assay [1] (GST-Bcl-2, F-Bak peptide probe) is < 0.01 nM; in assay [2] (setting [3]), 0.998 nM. The “Binding selectivity ratio” value in assay [1] is reported as 99.8.

Turning to `CC1(C)CCC(CN2CCN(c3ccc(C(=O)NS(=O)(=O)c4ccc(NCC5CN(CC#N)CCO5)c([N+](=O)[O-])c4)c(Oc4cccc5[nH]cnc45)c3)CC2)=C(c2ccc(Cl)cc2)C1` (stereo not shown) [Example 431, 2-(1H-benzimidazol-4-yloxy)-4-(4-{[2-(4-chlorophenyl)-4,4-dimethylcyclohex-1-en-1-yl]methyl}piperazin-1-yl)-N-{[4-({[4-(cyanomethyl)morpholin-2-yl]methyl}amino)-3-nitrophenyl]sulfonyl}benzamide], the Ki in assay [1] (GST-Bcl-2, F-Bak peptide probe) was < 0.01 nM; in assay [2] (setting [3]), 6.77 nM. Also, in assay [1], the “Binding selectivity ratio” value is 677.4.

With `CC1(C)CCC(CN2CCN(c3ccc(C(=O)NS(=O)(=O)c4ccc(NCC5CN(C6CC6)CCO5)c([N+](=O)[O-])c4)c(Oc4cccc5[nH]cnc45)c3)CC2)=C(c2ccc(Cl)cc2)C1` (stereo not shown) [Example 432, 2-(1H-benzimidazol-4-yloxy)-4-(4-{[2-(4-chlorophenyl)-4,4-dimethylcyclohex-1-en-1-yl]methyl}piperazin-1-yl)-N-[(4-{[(4-cyclopropylmorpholin-2-yl)methyl]amino}-3-nitrophenyl)sulfonyl]benzamide], the Ki in assay [1] (GST-Bcl-2, F-Bak peptide probe) stood at 0.023 nM; in assay [2] (setting [3]), 9.3 nM. In addition, the “Binding selectivity ratio” value in assay [1] was found to be 408.8.

On to `CC1(C)CCC(CN2CCN(c3ccc(C(=O)NS(=O)(=O)c4ccc(NCC5CN(C6COC6)CCO5)c([N+](=O)[O-])c4)c(Oc4cccc5[nH]cnc45)c3)CC2)=C(c2ccc(Cl)cc2)C1` (stereo not shown) [Example 433, 2-(1H-benzimidazol-4-yloxy)-4-(4-{[2-(4-chlorophenyl)-4,4-dimethylcyclohex-1-en-1-yl]methyl}piperazin-1-yl)-N-[(3-nitro-4-{[(4-oxetan-3-ylmorpholin-2-yl)methyl]amino}phenyl)sulfonyl]benzamide], for which the Ki is < 0.01 nM in assay [1] (GST-Bcl-2, F-Bak peptide probe) and 2.29 nM in assay [2] (setting [3]).

Consider `CC1(C)CCC(CN2CCN(c3ccc(C(=O)NS(=O)(=O)c4cnc(O[C@@H]5CCN(C(CF)CF)C5)c(Cl)c4)c(Oc4cccc5[nH]ncc45)c3)CC2)=C(c2ccc(Cl)cc2)C1` [Example 434, N-{[5-chloro-6-({(3R)-1-[2-fluoro-1-(fluoromethyl)ethyl]pyrrolidin-3-yl}oxy)pyridin-3-yl]sulfonyl}-4-(4-{[2-(4-chlorophenyl)-4,4-dimethylcyclohex-1-en-1-yl]methyl}piperazin-1-yl)-2-(1H-indazol-4-yloxy)benzamide], for which the Ki in assay [1] (GST-Bcl-2, F-Bak peptide probe) is 0.052 nM; in assay [2] (setting [3]) it was 75.5 nM. In assay [1], the “Binding selectivity ratio” value is 1459.4.

With `CC1(C)CCC(CN2CCN(c3ccc(C(=O)NS(=O)(=O)c4ccc(N[C@@H]5CCN(C(CF)CF)C5)c([N+](=O)[O-])c4)c(Oc4cccc5[nH]ncc45)c3)CC2)=C(c2ccc(Cl)cc2)C1` [Example 435, 4-(4-{[2-(4-chlorophenyl)-4,4-dimethylcyclohex-1-en-1-yl]methyl}piperazin-1-yl)-N-{[4-({(3R)-1-[2-fluoro-1-(fluoromethyl)ethyl]pyrrolidin-3-yl}amino)-3-nitrophenyl]sulfonyl}-2-(1H-indazol-4-yloxy)benzamide], the Ki in assay [1] (GST-Bcl-2, F-Bak peptide probe) stood at 0.017 nM; in assay [2] (setting [3]), 32.9 nM.

In the case of `CC1(C)CCC(CN2CCN(c3ccc(C(=O)NS(=O)(=O)c4ccc(NC5CCN(C6CC6)CC5)c([N+](=O)[O-])c4)c(Oc4cccc5[nH]ncc45)c3)CC2)=C(c2ccc(Cl)cc2)C1` [Example 436, 4-(4-{[2-(4-chlorophenyl)-4,4-dimethylcyclohex-1-en-1-yl]methyl}piperazin-1-yl)-N-({4-[(1-cyclopropylpiperidin-4-yl)amino]-3-nitrophenyl}sulfonyl)-2-(1H-indazol-4-yloxy)benzamide], the inhibitory constant (Ki) in assay [1] was determined as 0.011 nM; in assay [2], 6.5 nM.

On to `CN(C)CC(=O)N1CCO[C@H](CNc2ccc(S(=O)(=O)NC(=O)c3ccc(N4CCN(CC5=C(c6ccc(Cl)cc6)CC(C)(C)CC5)CC4)cc3Oc3cccc4[nH]cnc34)cc2[N+](=O)[O-])C1` [Example 437, 2-(1H-benzimidazol-4-yloxy)-4-(4-{[2-(4-chlorophenyl)-4,4-dimethylcyclohex-1-en-1-yl]methyl}piperazin-1-yl)-N-{[4-({[(2R)-4-(N,N-dimethylglycyl)morpholin-2-yl]methyl}amino)-3-nitrophenyl]sulfonyl}benzamide], for which the Ki was < 0.01 nM in assay [1] and 0.514 nM in assay [2].

Consider `CN(C)CC(=O)N1CCO[C@@H](CNc2ccc(S(=O)(=O)NC(=O)c3ccc(N4CCN(CC5=C(c6ccc(Cl)cc6)CC(C)(C)CC5)CC4)cc3Oc3cccc4[nH]cnc34)cc2[N+](=O)[O-])C1` [Example 438, 2-(1H-benzimidazol-4-yloxy)-4-(4-{[2-(4-chlorophenyl)-4,4-dimethylcyclohex-1-en-1-yl]methyl}piperazin-1-yl)-N-{[4-({[(2S)-4-(N,N-dimethylglycyl)morpholin-2-yl]methyl}amino)-3-nitrophenyl]sulfonyl}benzamide], for which the inhibition constant (Ki) was < 0.01 nM in assay [1] and 0.345 nM in assay [2].
